Results as given in patent US20180147140A1, “Treatment and Prevention of ENT Infections” (priority 2016, published 2018).

Test system: chronic sinusitis
Assay: Patient Case 1: self-reported Health Related Quality of Life Scale and symptoms
Assay type: in vivo, human
Conditions: treatments before the invention regime
From the text: Person in good health, whose daily med profile includes • Taking one statin generic drug daily • Taking one over the counter multiple vitamin daily • On average two medical exams each year • No diagnosed medical conditions or concerns
Symptoms—blocked nasal passages especially on the right side of the face, continuous hardened yellow translucent pus discharge from right nostril, minor periodic bleeding, nasal sound quality of voice, a propensity for cold virus to linger and a whistle sound while breathing through the nostrils.
The Kaiser treatment program consisted of a saline rinse bulb and recommendation of daily saline sinus rinsing along with a nasal steroid spray available over the counter. […] The patient continued occasional use of the regimen over the following 15 years with no noticeable improvement.
Treatment began on Mar. 9, 2016 with a new and unique product. The formulation used is Composition 1 in the Formulation Example.
Initial treatment was for 14 days, one dose daily in each nostril, approximately ¼ ounce (7.3 milliliters) administered with a nose dropper while the patient was lying down with chin inclined upward—sometimes with head over the edge of bed or pillow to increase the incline of the forehead to be lower than the chin. The patient remained unmoving for five minutes with no blowing of the nose to allow gravity saturation to reach the deep passages. […]

## CC1(C)S[C@@H]2[C@H](NC(=O)[C@H](N)c3ccc(O)cc3)C(=O)N2[C@H]1C(=O)O [amoxicillin]
  relief of sinusitis symptoms under earlier treatments: no relief from the sinusitis
